Molecular target: T1, CFTR ΔF508 mutant (Homo sapiens, UniProt P13569, DEL508-508)
T1 construct: expressed in transfected cells; host or cells: CFBE41o- (adenoviral transduction)
Experiment: YFP-halide influx assay for the CFTR-ΔF508 mutation, gluconate buffer
Assay type: cell-based
Details: CFBE41o- cells, forskolin 10.67 μM
Excerpt: The YFP halide influx assay measures the functionality of the cystic fibrosis Transmembrane Conductance regulator (CFTR) channels in the cystic fibrosis bronchial epithelium cell line CFBE41o-. The assay is used to evaluate the capacity of compounds to increase the open probability of existing CFTR channels in the membrane. It makes use of the observation that the yellow fluorescent protein (YFP) variant YFP H148Q, I152L has its fluorescence substantially quenched by halide ions like Cl^− and I^−. (Galietta, Haggie, & Verkman, 2001) (Nagai, et al., 2002)
For this purpose, CFBE41o-cells are seeded in 96 well plates (6000 CFBE cells/well). One day after seeding, the CFBE cells are transduced with adenoviral vectors that direct the expression of the CFTR ΔF508 mutant and of the YFP reporter. Cells are incubated at 27° C., 5% CO2 for 24 hours so as to allow for the proper folding and migration to the membrane of the CFTR channel or treated with a CFTR modulator during 24 hours at 37° C.
The I^−-induced quenching of fluorescence is recorded immediately after injection of I^− for 7 seconds. The capacity of a compound to increase the channel opening is directly correlated with the decrease in fluorescence, and is expressed as (1-(fluorescence after 7 seconds (F)/fluorescence before injection (F0))) and an EC50 can be derived from a (1-F/F0) vs compound concentration plot.

T1 sequence (P13569 with tags, fused parts or gaps DEL508-508): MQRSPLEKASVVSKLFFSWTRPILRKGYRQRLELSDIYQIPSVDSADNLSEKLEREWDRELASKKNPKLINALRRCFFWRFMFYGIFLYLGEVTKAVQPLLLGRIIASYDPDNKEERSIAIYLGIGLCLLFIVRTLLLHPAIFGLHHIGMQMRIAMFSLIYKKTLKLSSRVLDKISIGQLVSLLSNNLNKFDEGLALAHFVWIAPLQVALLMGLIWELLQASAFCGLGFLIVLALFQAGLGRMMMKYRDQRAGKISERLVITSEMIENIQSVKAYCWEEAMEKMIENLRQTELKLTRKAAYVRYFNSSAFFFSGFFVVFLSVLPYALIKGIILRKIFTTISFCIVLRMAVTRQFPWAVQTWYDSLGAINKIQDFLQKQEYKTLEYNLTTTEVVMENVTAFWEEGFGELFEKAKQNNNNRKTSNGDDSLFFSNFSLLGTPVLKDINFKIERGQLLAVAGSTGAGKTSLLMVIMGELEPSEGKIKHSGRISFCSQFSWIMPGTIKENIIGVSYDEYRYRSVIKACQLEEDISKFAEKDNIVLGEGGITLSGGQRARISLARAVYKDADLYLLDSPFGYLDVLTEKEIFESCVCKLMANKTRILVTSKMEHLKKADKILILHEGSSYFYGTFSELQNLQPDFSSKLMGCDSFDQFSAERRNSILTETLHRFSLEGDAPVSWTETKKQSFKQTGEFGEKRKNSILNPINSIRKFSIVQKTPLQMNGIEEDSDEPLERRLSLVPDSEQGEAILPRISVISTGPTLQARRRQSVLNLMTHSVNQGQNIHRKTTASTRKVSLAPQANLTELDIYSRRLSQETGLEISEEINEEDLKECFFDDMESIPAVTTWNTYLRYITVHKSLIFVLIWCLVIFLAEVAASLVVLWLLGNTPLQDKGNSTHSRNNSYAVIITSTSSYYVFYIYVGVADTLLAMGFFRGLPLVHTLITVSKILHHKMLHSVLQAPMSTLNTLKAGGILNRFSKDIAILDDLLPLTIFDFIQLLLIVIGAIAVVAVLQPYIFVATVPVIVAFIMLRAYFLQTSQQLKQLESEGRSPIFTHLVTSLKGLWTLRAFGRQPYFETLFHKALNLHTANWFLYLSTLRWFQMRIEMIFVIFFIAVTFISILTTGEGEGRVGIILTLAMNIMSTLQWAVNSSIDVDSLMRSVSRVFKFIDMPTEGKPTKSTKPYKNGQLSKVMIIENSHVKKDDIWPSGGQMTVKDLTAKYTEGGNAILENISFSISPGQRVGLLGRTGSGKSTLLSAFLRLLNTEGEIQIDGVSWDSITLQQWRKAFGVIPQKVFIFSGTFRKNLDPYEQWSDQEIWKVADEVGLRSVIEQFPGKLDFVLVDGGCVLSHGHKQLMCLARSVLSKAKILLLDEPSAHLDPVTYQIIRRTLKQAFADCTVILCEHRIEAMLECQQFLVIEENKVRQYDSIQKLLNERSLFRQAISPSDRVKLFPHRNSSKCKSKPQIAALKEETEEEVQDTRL

| EC50 [nM] | Structure (SMILES) |
| --- | --- |
| 921 | NC(=O)c1cc(S(=O)(=O)N2CCOCC2)sc1NC(=O)C1(O)CC1 [Compound 131, 2-(1-hydroxycyclopropanecarboxamido)-5-(morpholinosulfonyl) thiophene-3-carboxamide] |
| 2180 | NC(=O)c1cc(S(=O)(=O)N2CCCCC2)sc1NC(=O)c1cncs1 [Compound 62, N-(3-carbamoyl-5-(piperidin-1-ylsulfonyl)thiophen-2-yl)thiazole-5-carboxamide] |
| 215 | NC(=O)c1cc(S(=O)(=O)N2CCOCC2)sc1NC(=O)c1cc(C(F)(F)F)[nH]n1 [Compound 102, N-(3-carbamoyl-5-(morpholinosulfonyl)thiophen-2-yl)-5-(trifluoromethyl)-1H-pyrazole-3-carboxamide] |
| 624 | CCCC(=O)Nc1sc(S(=O)(=O)N2CCCCC2)cc1C(N)=O [Compound 28, 2-butyramido-5-(piperidin-1-ylsulfonyl)thiophene-3-carboxamide] |
| 3280 | NC(=O)c1cc(S(=O)(=O)N2CCCCC2)sc1NC(=O)c1c[nH]cn1 [Compound 35, N-(3-carbamoyl-5-(piperidin-1-ylsulfonyl)thiophen-2-yl)-1H-imidazole-4-carboxamide] |
| 1660 | COc1cc(F)ccc1C(=O)Nc1sc(S(=O)(=O)N2CCOCC2)cc1C(N)=O [Compound 168, 2-(4-fluoro-2-methoxybenzamido)-5-(morpholinosulfonyl) thiophene-3-carboxamide] |
| 599 | CC(C)(C)c1ccc(C(=O)Nc2sc(S(=O)(=O)N3CCOCC3)cc2C(N)=O)s1 [Compound 51, 5-tert-butyl-N-(3-carbamoyl-5-(morpholinosulfonyl)thiophen-2-yl) thiophene-2-carboxamide] |
| 253 | COc1ccccc1C(=O)Nc1sc(S(=O)(=O)N2CCOCC2)cc1C(N)=O [Compound 48, 2-(2-methoxybenzomido)-5-(morpholinosulfonyl) thiophene-3-carboxamide] |
| 2160 | NC(=O)c1cc(S(=O)(=O)N2CCCCC2)sc1NC(=O)c1ccc(-c2cccnc2)s1 [Compound 64, N-(3-carbamoyl-5-(piperidin-1-ylsulfonyl)thiophen-2-yl)-5-(pyridin-3-yl)thiphene-2-carboxamide] |
| 265 | NC(=O)c1cc(S(=O)(=O)N2CCCCC2)sc1NC(=O)c1ccccc1Cl [Compound 17, 2-(2-chlorobenzamido)-5-(piperidin-1-ylsulfonyl)thiophene-3-carboxamide] |
| > 1000 | NC(=O)c1cc(S(=O)(=O)N2CCCCC2)sc1NC(=O)C1(c2ccc(Cl)cc2)CC1 [Compound 61, 2-(1-(4-chlorophenyl)cyclopropanecarboxamido)-5-(piperidin-1-ylsulfonyl) thiophene-3-carboxamide] |
| > 1000 | NC(=O)c1cc(S(=O)(=O)N2CCOCC2)sc1NC(=O)c1cccnn1 [Compound 79, N-(3-carbamoyl-5-(morpholinosulfonyl)thiophen-2-yl) pyridazine-3-carboxamide] |
| 291 | Cc1ccccc1C(=O)Nc1sc(S(=O)(=O)N2CCOCC2)cc1C(N)=O [Compound 136, 2-(2-methylbenzamido)-5-(morpholinosulfonyl) thiophene-3-carboxamide] |
| 3330 | CC(C)(O)C(=O)Nc1sc(S(=O)(=O)N2CCOCC2)cc1C(N)=O [Compound 203, 2-(2-hydroxy-2-methylpropanamido)-5-(morpholinosulfonyl) thiophene-3-carboxamide] |
| 3330 | NC(=O)c1cc(S(=O)(=O)N2CCOCC2)sc1NC(=O)c1nccs1 [Compound 93, N-(3-carbamoyl-5-(morpholinosulfonyl)thiophen-2-yl)thiazole-2-carboxamide] |
| 293 | NC(=O)c1cc(S(=O)(=O)N2CCCCC2)sc1NC(=O)C1CCC(F)(F)CC1 [Compound 37, 2-(4,4-difluorocyclohexanecarboxamide)-5-(piperidin-1-ylsulfonyl) thiophene-3-carboxamide] |
| 178 | NC(=O)c1cc(S(=O)(=O)N2CC(F)C2)sc1NC(=O)c1ccccc1F [Compound 177, 5-(3-fluoroazetidin-1-ylsulfonyl)-2-(2-fluorobenzamido)thiophene-3-carboxamide] |
| 670 | CC(C)(C)n1cc(C(=O)Nc2sc(S(=O)(=O)N3CCCCC3)cc2C(N)=O)cn1 [Compound 43, 1-tert-butyl-N-(3-carbamoyl-5-(piperidin-1-ylsulfonyl)thiophen-2-yl)-1H-pyrazole-4-carboxamide] |
| 1970 | NC(=O)c1cc(S(=O)(=O)N2CCOCC2)sc1NC(=O)C1(O)CCC1 [Compound 199, 2-(1-hydroxycyclobutanecarboxamido)-5-(morpholinosulfonyl) thiophene-3-carboxamide] |
| 275 | NC(=O)c1cc(S(=O)(=O)C2CCCCC2)sc1NC(=O)c1ccccc1F [Compound 129, 5-(cyclohexylsulfonyl)-2-(2-fluorobenzamido) thiophene-3-carboxamide] |

The next lines start with the compound.

| Structure (SMILES) | EC50 [nM] |
| --- | --- |
| CS(=O)(=O)c1cc(C(N)=O)c(NC(=O)c2ccccc2F)s1 [Compound 127, 2-(2-fluorobenzamido)-5-(methylsulfonyl) thiophene-3-carboxamide] | 659 |
| CC(C)S(=O)(=O)c1cc(C(N)=O)c(NC(=O)c2ccccc2F)s1 [Compound 163, 2-(2-fluorobenzamido)-5-(isopropylsulfonyl) thiophene-3-carboxamide] | 272 |
| CN(Cc1ccccc1)S(=O)(=O)c1cc(C(N)=O)c(NC(=O)c2ccccc2F)s1 [Compound 72, 5-(N-benzyl-N-methylsulfamoyl)-2-(2-fluorobenzamido) thiophene-3-carboxamide] | 326 |
| NC(=O)c1cc(S(=O)(=O)c2ccccn2)sc1NC(=O)c1ccccc1F [Compound 178, 2-(2-fluorobenzamido)-5-(pyridin-2-ylsulfonyl) thiophene-3-carboxamide] | 524 |
| NC(=O)c1cc(S(=O)(=O)N2CCC(F)(F)CC2)sc1NC(=O)C1(O)CCOCC1 [Compound 202, N-(3-carbamoyl-5-(4,4-difluoropiperidin-1-ylsulfonyl)thiophen-2-yl)-4-hydroxytetrahydro-2H-pyran-4-carboxamide] | 706 |
| Cc1c(S(=O)(=O)N2CCOCC2)sc(NC(=O)c2ccccc2F)c1C(N)=O [Compound 85, 2-(2-fluorobenzamido)-4-methyl-5-(morpholinosulfonyl) thiophene-3-carboxamide] | 114 |
| CC(C)(C)C(=O)Nc1sc(S(=O)(=O)N2CCC(F)(F)CC2)cc1C(N)=O [Compound 67, 5-(4,4-difluoropiperidin-1-ylsulfonyl)-2-pivalamidothiophene-3-carboxamide] | 250 |
| CN(C(c1ccccc1)C(F)(F)F)S(=O)(=O)c1cc(C(N)=O)c(NC(=O)c2cc[nH]n2)s1 (stereo not shown) [Compound 195, N-(3-carbamoyl-5-(N-methyl-N-(2,2,2-trifluoro-phenylethyl)sulfamoyl)thiophen-2-yl)-1H-pyrazole-3-carboxamide] | 258 |
| NC(=O)c1cc(S(=O)(=O)C2CCOCC2)sc1NC(=O)c1ccccc1F [Compound 165, 2-(2-fluorobenzamido)-5-(tetrahydro-2H-pyran-4-ylsulfonyl)thiophene-3-carboxamide] | > 1000 |
| Cc1ccc(C(=O)Nc2sc(S(=O)(=O)c3ccccc3)c(C)c2C(N)=O)s1 [Compound 86, N-(3-carbamoyl-4-methyl-5-(phenylsulfonyl)thiophen-2-yl)-5-methylthiophene-2-carboxamide] | 138 |
| CC(C)(C)S(=O)(=O)c1cc(C(N)=O)c(NC(=O)c2ccccc2F)s1 [Compound 164, 5-(tert-butylsulfonyl)-2-(2-fluorobenzamido) thiophene-3-carboxamide] | > 1000 |
| Cc1c(S(=O)(=O)c2ccccc2)sc(NC(=O)c2ccccc2C(F)(F)F)c1C(N)=O [Compound 104, 4-methyl-5-(phenylsulfonyl)-2-(2-(trifluoromethyl)benzamido)thiophene-3-carboxamide] | 370 |
| CN(C)S(=O)(=O)c1cc(C(N)=O)c(NC(=O)c2cc[nH]n2)s1 [Compound 75, N-(3-carbamoyl-5-(N,N-dimethylsulfamoyl)thiophen-2-yl)-1H-pyrazole-3-carboxamide] | 418 |
| NC(=O)c1cc(S(=O)(=O)c2ccccc2)sc1NC(=O)c1ccccc1F [Compound 100, 2-(2-fluorobenzamido)-5-(phenylsulfonyl) thiophene-3-carboxamide] | 121 |
| CC(C)c1cc(C(=O)Nc2sc(S(=O)(=O)N3CCOCC3)cc2C(N)=O)c(O)c(C(C)C)c1 [Compound 201, 2-(2-hydroxy-3,5-diisopropylbenzamido)-5-(morpholinosulfonyl) thiophene-3-carboxamide] | 3330 |
| NC(=O)c1cc(S(=O)(=O)c2ccccc2F)sc1NC(=O)c1ccccc1F [Compound 117, 2-(2-fluorobenzamido)-5-(2-fluorophenylsulfonyl) thiophene-3-carboxamide] | 138 |
| CC(C)(C)OC(=O)N1CCC2(CC1)CCN(S(=O)(=O)c1cc(C(N)=O)c(NC(=O)c3ccccc3F)s1)C2 [Compound 148, tert-butyl 2-(4-carbamoyl-5-(2-fluorobenzamido)thiophen-2-ylsulfonyl)-2,8-diazaspiro[4.5]decane-8-carboxylate] | 344 |

From US9382254B2, “Compounds and pharmaceutical compositions thereof for the treatment of cystic fibrosis” (Galapagos NV, priority 2013, dated 2016)
